The values that follow are results of earlier work, collected in patent US6348490B1, “Dosage forms containing thioctic acid or solid salts of thioctic acid with improved release and bioavailability” (Asta Medica Aktiengesellschaft, priority 1994, dated 2002).

For series [1] the following is noted: factor versus racemate.
The conditions of series [2]: factor versus racemate. The source holds these as a separate data set.

For `O=C(O)CCCC[C@@H]1CCSS1` [R-Thioctic acid, R-thioctic acid], the “anti-inflammatory action, factor stronger than that of the racemate” value in series [1] was 10.
In the case of `O=C(O)CCCC[C@H]1CCSS1` (single isomer, unassigned) [S-enantiomer, S-thioctic acid], in series [2], the “anti-nociceptive (analgesic) action, factor stronger than that of the racemate” value is 6.
